Source: paper PMC5698704 (Chemmedchem, 2017)

Experiments:
HeLa cells = assay: Proliferation assay HeLa; type: cell-based; conditions: Homo sapiens, 96 h, read-out: HeLa IC50
CDK9/CycT1 = CDK9/CycT1 (Homo sapiens, UniProt P50750); assay: CDK9/CycT1 kinase assay; type: biochemical
CDK2/CycE = CDK2/CycE kinase assay; type: biochemical, human; conditions: ratio of IC50 values CDK2/CDK9, in-house assays
MOLM‐13 cells = assay: Proliferation assay MOLM‐13; type: cell-based; conditions: Homo sapiens, MOLM-13, 96 h, read-out: MOLM‐13 IC50
[1] = Metabolic stability in mouse liver microsomes; type: in vitro ADME
[2] = Metabolic stability in rat liver microsomes; type: in vitro ADME; conditions: rat, liver microsomes
[3] = Metabolic stability in human liver microsomes; type: in vitro ADME
MOLM‐13 human AML model = assay: MOLM‐13 human AML xenograft model in mice; type: in vivo, mouse; conditions: for T/C ratio: end of the experiment

Sequence of CDK9/CycT1 (P50750 whole entry): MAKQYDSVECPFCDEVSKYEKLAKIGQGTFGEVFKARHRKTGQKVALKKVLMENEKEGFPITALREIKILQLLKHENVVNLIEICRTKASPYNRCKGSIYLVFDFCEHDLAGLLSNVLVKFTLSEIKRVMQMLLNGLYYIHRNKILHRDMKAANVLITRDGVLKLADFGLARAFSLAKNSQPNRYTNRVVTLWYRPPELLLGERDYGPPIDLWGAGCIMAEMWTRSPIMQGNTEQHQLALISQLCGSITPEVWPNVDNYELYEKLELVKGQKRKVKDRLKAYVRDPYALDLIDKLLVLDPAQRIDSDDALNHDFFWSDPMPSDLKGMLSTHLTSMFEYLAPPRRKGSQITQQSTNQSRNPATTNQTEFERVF
Sequence of CDK9/CycT1 (O60563 whole entry partner): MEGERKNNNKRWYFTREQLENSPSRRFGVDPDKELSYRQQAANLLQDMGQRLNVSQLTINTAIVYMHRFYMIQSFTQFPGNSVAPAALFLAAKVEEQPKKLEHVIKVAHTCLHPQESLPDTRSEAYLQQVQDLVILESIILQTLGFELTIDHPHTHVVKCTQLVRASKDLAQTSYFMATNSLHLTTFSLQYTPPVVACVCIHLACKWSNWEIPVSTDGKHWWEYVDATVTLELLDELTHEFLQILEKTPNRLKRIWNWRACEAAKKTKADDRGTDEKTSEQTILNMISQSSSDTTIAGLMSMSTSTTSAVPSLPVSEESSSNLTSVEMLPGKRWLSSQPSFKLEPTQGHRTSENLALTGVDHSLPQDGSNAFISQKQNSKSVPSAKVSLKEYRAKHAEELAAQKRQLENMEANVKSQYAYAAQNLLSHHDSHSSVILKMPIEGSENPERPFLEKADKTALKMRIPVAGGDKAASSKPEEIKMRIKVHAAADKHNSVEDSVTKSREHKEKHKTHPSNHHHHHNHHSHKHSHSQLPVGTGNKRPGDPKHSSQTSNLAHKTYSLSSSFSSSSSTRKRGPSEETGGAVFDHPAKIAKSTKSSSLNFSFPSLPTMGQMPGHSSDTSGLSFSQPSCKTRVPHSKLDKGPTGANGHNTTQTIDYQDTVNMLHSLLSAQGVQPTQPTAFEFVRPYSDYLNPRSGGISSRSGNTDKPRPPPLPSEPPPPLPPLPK

SMILES | IC50 (HeLa cells) [nM] | IC50 (CDK9/CycT1) [nM] | Selectivity vs. CDK2, ratio of IC50 values (CDK2/CycE) | also measured
NS(=O)(=O)Cc1cccc(Nc2ncnc(-c3ccccc3OC(F)(F)F)n2)c1 [Compound 19, 1‐[3‐({4‐[2‐(Trifluoromethoxy)phenyl]‐1,3,5‐triazin‐2‐yl}amino)phenyl]methanesulfonamide] | > 3000 | 620 | 20 | 
COc1cc(F)ccc1-c1ncnc(Nc2cccc(CCS(C)(=O)=O)c2)n1 [Compound 6, 4‐(4‐Fluoro‐2‐methoxyphenyl)‐N‐{3‐[2‐(methylsulfonyl)ethyl]phenyl}‐1,3,5‐triazin‐2‐amine] | 2200 | 49 | 12 | 
COc1ccccc1-c1ncnc(Nc2cccc(CS(N)(=O)=O)c2)n1 [Compound 14, 1‐(3‐{[4‐(2‐Methoxyphenyl)‐1,3,5‐triazin‐2‐yl]amino}phenyl)methanesulfonamide] | 1600 | 23 | 62 | 
NS(=O)(=O)Cc1cccc(Nc2ncnc(-c3ccc(F)cc3F)n2)c1 [Compound 18, 1‐(3‐{[4‐(2,4‐Difluorophenyl)‐1,3,5‐triazin‐2‐yl]amino}phenyl)methanesulfonamide] | > 3000 | 270 | 16 | 
COc1cc(F)ccc1-c1ncnc(Nc2cccc(CS(C)(=O)=O)c2)n1 [Compound 4, 4‐(4‐Fluoro‐2‐methoxyphenyl)‐N‐{3‐[(methylsulfonyl)methyl]phenyl}‐1,3,5‐triazin‐2‐amine] |  |  |  | IC50 (MOLM‐13 cells): 130 nM
COc1cc(F)ccc1-c1ncnc(Nc2cccc(S(C)(=O)=O)c2)n1 [Compound 5, 4‐(4‐Fluoro‐2‐methoxyphenyl)‐N‐[3‐(methylsulfonyl)phenyl]‐1,3,5‐triazin‐2‐amine] | 1340 | 32 | 19 | 
COCc1ccccc1-c1ncnc(Nc2cccc(CS(N)(=O)=O)c2)n1 [Compound 20, 1‐[3‐({4‐[2‐(Methoxymethyl)phenyl]‐1,3,5‐triazin‐2‐yl}amino)phenyl]methanesulfonamide] |  | 1700 | >11 | 
COc1cc(F)ccc1-c1ncnc(Nc2cccc(C(F)S(C)(=O)=O)c2)n1 (racemic) [Compound 12, (rac)‐4‐(4‐Fluoro‐2‐methoxyphenyl)‐N‐{3‐[fluoro(methylsulfonyl)methyl]phenyl}‐1,3,5‐triazin‐2‐amine] | 890 | 20 | 13 | 
COc1cc(F)ccc1-c1ncnc(Nc2cccc(C(F)(F)S(C)(=O)=O)c2)n1 [Compound 13, N ‐{3‐[Difluoro(methylsulfonyl)methyl]phenyl}‐4‐(4‐fluoro‐2‐methoxyphenyl)‐1,3,5‐triazin‐2‐amine] | 4200 | 67 | 19 | 
NS(=O)(=O)Cc1cccc(Nc2ncnc(-c3ccc(F)cc3OCc3ccccc3)n2)c1 [Compound 23, 1‐[3‐({4‐[2‐(Benzyloxy)‐4‐fluorophenyl]‐1,3,5‐triazin‐2‐yl}amino)phenyl]methanesulfonamide] | 100 | 4 | 34 | recovery at 60 min [1]: 0.2%; recovery at 60 min [2]: 0%; recovery at 60 min [3]: 0%
COc1cc(Cl)ccc1-c1ncnc(Nc2cccc(CS(N)(=O)=O)c2)n1 [Compound 15, 1‐(3‐{[4‐(4‐Chloro‐2‐methoxyphenyl)‐1,3,5‐triazin‐2‐yl]amino}phenyl)methanesulfonamide] | 3800 | 27 | 108 | 
COc1cc(F)ccc1-c1ncnc(Nc2cccc(CS(=O)(=O)C(C)(C)C)c2)n1 [Compound 9, N ‐{3‐[(tertButylsulfonyl)methyl]phenyl}‐4‐(4‐fluoro‐2‐methoxyphenyl)‐1,3,5‐triazin‐2‐amine] | 2900 |  | 43 | 
CC(=O)Nc1cc(F)ccc1-c1ncnc(Nc2cccc(CS(N)(=O)=O)c2)n1 [Compound 21, N ‐[5‐Fluoro‐2‐(4‐{[3‐(sulfamoylmethyl)phenyl]amino}‐1,3,5‐triazin‐2‐yl)phenyl]acetamide] | 3000 |  | <1 | 
COc1cc(F)ccc1-c1ncnc(Nc2ccc3c(c2)S(=O)(=O)CC3)n1 [Compound 7, N‐( 1,1‐Dioxido‐2,3‐dihydro‐1‐benzothien‐6‐yl)‐4‐(4‐fluoro‐2‐methoxyphenyl)‐1,3,5‐triazin‐2‐amine] | 550 | 7 | 22 | 
COc1cc(F)ccc1-c1ncnc(Nc2cccc(CS(N)(=O)=O)c2)n1.Cl [BAY‐958 hydrochloride, 1‐(3‐{[4‐(4‐Fluoro‐2‐methoxyphenyl)‐1,3,5‐triazin‐2‐yl]amino}phenyl)methanesulfonamide hydrochloride] |  |  |  | T/C ratio (MOLM‐13 human AML model; 30 mg kg^−1 daily oral): 0.16; T/C ratio (MOLM‐13 human AML model; 40 mg kg^−1 daily oral): 0.12; body weight change (MOLM‐13 human AML model; 30 or 40 mg kg^−1 daily oral): less than 10%; fatal toxicities (MOLM‐13 human AML model; 30 or 40 mg kg^−1 daily oral): no fatal toxicities
NS(=O)(=O)Cc1cccc(Nc2ncnc(-c3ccc(F)cc3C(F)(F)F)n2)c1 [Compound 22, 1‐[3‐({4‐[4‐Fluoro‐2‐(trifluoromethyl)phenyl]‐1,3,5‐triazin‐2‐yl}amino)phenyl]methanesulfonamide] |  |  | 1 | 
COc1cc(F)ccc1-c1ncnc(Nc2cccc(C(C)(C)S(C)(=O)=O)c2)n1 [Compound 11, 4‐(4‐Fluoro‐2‐methoxyphenyl)‐N‐{3‐[2‐(methylsulfonyl)propan‐2‐yl]phenyl}‐1,3,5‐triazin‐2‐amine] |  | 1000 | >20 | 
COc1cc(F)ccc1-c1ncnc(Nc2cccc(C(C)S(C)(=O)=O)c2)n1 (racemic) [Compound 10, (rac)‐4‐(4‐Fluoro‐2‐methoxyphenyl)‐N‐{3‐[1‐(methylsulfonyl)ethyl]phenyl}‐1,3,5‐triazin‐2‐amine] | 3200 | 85 | 21 | 
COc1cc(F)ccc1-c1ncnc(Nc2ccc3c(c2)CS(=O)(=O)C3)n1 [Compound 8, N‐( 2,2‐Dioxido‐1,3‐dihydro‐2‐benzothien‐5‐yl)‐4‐(4‐fluoro‐2‐methoxyphenyl)‐1,3,5‐triazin‐2‐amine] | 11000 | 51 | <1 | 
COc1cnccc1-c1ncnc(Nc2cccc(CS(N)(=O)=O)c2)n1 [Compound 16, 1‐(3‐{[4‐(3‐Methoxypyridin‐4‐yl)‐1,3,5‐triazin‐2‐yl]amino}phenyl)methanesulfonamide] |  | 1800 | 14 | 
NS(=O)(=O)Cc1cccc(Nc2ncnc(-c3ccc(F)cc3O)n2)c1 [Compound 17, 1‐(3‐{[4‐(4‐Fluoro‐2‐hydroxyphenyl)‐1,3,5‐triazin‐2‐yl]amino}phenyl)methanesulfonamide] | 2900 | 130 | 6 | 
